The text below walks through data of patent publication US8236851B2, “Microspherules containing a pleuromutilin derivative” (Novartis AG, priority 2001, dated 2012).

SMILES strings stand for the structures. Where a name gives a salt, the structure may show the parent alone.

Details of data set [1]: species or system piglets. To be noted: in vivo, po. The protocol:
Bioavailability studies indicate that the microspherules pass through the stomach in an intact state and release the active ingredient only in the alkaline medium of the intestine. […] After 8-10 hours, the curve then falls off again and approaches zero. In case b), with the microspherules, the increase in active ingredient concentration begins after a delay of about 1-2 hours, reaches its maximum value after about 3-4 hours and, after about 10-12 hours, falls towards zero. […] This new method makes available a form of administration that is gentle on the stomach and that makes oral therapy even more efficient.

Data set [2] is described as follows: Stability of valnemulin in uncompressed feed. It counts as physicochemical.

Turning to `C=C[C@]1(C)C[C@@H](OC(=O)CSC(C)(C)CNC(=O)[C@H](N)C(C)C)[C@]2(C)[C@H](C)CC[C@]3(CCC(=O)[C@H]32)[C@@H](C)[C@@H]1O` [free valnemulin hydrochloride, valnemulin], in data set [1], the “time after which the plasma concentration curve falls towards zero” value was in the range of 8 to 10 h and the “time at which plasma active ingredient concentration reaches its maximum value” lay within 2 to 3 h. Further, the “loss of valnemulin in uncompressed feed” value in data set [2] is listed as “the same losses”.
